Test results from patent publication US8354436B2 (4SC Discovery GmbH, priority 2011, dated 2013).
Read-outs that look alike come from different tables or passages of the source.

How the values were obtained:
Format in all cases: cell-based
IFN-γ = IFN-γ production by PHA-stimulated human PBMC (OptEIA human IFN-g ELISA); conditions: 48 hours
Description: (§1) Analysis of Proliferation of and Cytokine Production by Human PBMC Stimulated with PHA
(§2) Peripheral blood mononuclear cells (PBMC) from healthy human donors were purified using Accuspin™ System-Histopaque-1077 (Sigma) according to the protocol recommended by the manufacturer. Purified PBMC were then washed twice with phosphate-buffered saline (PBS) and resuspended in RPMI1640 culture medium supplemented with 10% dialyzed heat inactivated fetal calf serum, 1.5 mM L-glutamine, 100 U penicillin/ml, and […] (all from PAN Biotech, Aidenbach, Germany). For stimulation, PBMC were seeded at 1×10^5 cells/well, activated with 2 μg/ml phytohaemagglutinin (PHA, Sigma) and incubated with the test compounds for 48 hours. IL-17A, IL-17F and INF-γ were then determined in the culture supernatant using a Luminex BioPlex system, following the manufacturer's instructions (BioRad, Munich, Germany). For screening, compounds were used at 10, 1, 0.1 and 0.01 μM. To determine the IC50, compounds were titrated semilogarithmically.
(§3) Cytokines were determined in the aforementioned culture supernatant using the following methods: IL-17AA/AF was measured using the Luminex BioPlex system (BioRad, Munich, Germany); IL-17AA using the human homodimer IL-17A ELISA Ready Set Go Kit from eBioscience (Frankfurt, Germany); IL-17FF using the human IL-17F ELI-Pair from Hölzel DiagnosticaGmBH (Köln, Germany); and IFN-γ using the OptEIA human IFN-g ELISA from BD Bioscience (Heidelberg, Germany), all following the manufacturer's instructions.

IL-17FF = IL-17FF production by PHA-stimulated human PBMC (human IL-17F ELI-Pair); conditions: 48 hours
Description: as §1, §2, §3

[1] = test system: PBMC from healthy human donors; assay: T cell proliferation assay (PHA-stimulated human PBMC, BrdU ELISA); conditions: PHA-stimulated human PBMC, 48 hours, column D, read-out: IC50 (Tcell proliferation)
Description: Cell proliferation was analysed using the BrdU based cell proliferation ELISA from Roche (Mannheim, Germany) according to the manufacturer's instructions. T Cell Proliferation Assay Peripheral blood mononuclear cells (PBMC) from healthy human donors were isolated by centrifugation over Ficoll-Hypaque (Sigma-Aldrich, Germany) according to manufacturer's instructions. Purified PBMC were washed twice with PBS and resuspended in RPMI1640 culture medium supplemented with 10% dialyzed heat inactivated fetal calf serum, 1.5 mM L-glutamine, 100 U penicillin/ml, and […] (all from PAN Biotech, Aidenbach, Germany). For stimulation, PBMC were seeded at 1×10^5 cells/well, activated with 2 μg/ml phytohaemagglutinin (PHA, Sigma) and incubated with the test compound. After 48 hours proliferation was measured using the BrdU based cell proliferation ELISA from Roche (Mannheim, Germany) according to the manual.

[2] = PHA-stimulated human PBMC, column B, read-out: IC50 (IL-17FF)
[3] = PHA-stimulated human PBMC, column C, read-out: IC50 (IFNγ)

IC50 (IL-17FF; [2])	IC50 (IFN-γ; [3])	SMILES	also measured
		CC(=O)Nc1cccc(-n2ncc(-c3onc(-c4c(F)cccc4Cl)c3-c3nnco3)c2C(F)(F)F)c1 [Example B-13, N-(3-(4-(3-(2-chloro-6-fluorophenyl)-4-(1,3,4-oxadiazol-2-yl)isoxazol-5-yl)-5-(trifluoromethyl)-1H-pyrazol-1-yl)phenyl)acetamide]	IC50 (IFN-γ; human PBMC, 2 μg/ml PHA, read-out: C: IC50 (IFNγ)): 1000 to 10000 nM; IC50 (IL-17FF; human PBMC, 2 μg/ml PHA, read-out: B: IC50 (IL-17FF)): 1000 to 10000 nM
1000 to 10000 nM		CNC(=O)c1c(-c2c(F)cccc2Cl)noc1-c1cnn(-c2ccc(OC(F)(F)F)cc2)c1C(F)(F)F [Example I-56, 3-(2-chloro-6-fluorophenyl)-N-methyl-5-(1-(4-(trifluoromethoxy)phenyl)-5-(trifluoromethyl)-1H-pyrazol-4-yl)isoxazole-4-carboxamide]	
10 to 100 nM	100 to 1000 nM	COC(=O)c1sccc1-n1ncc(-c2onc(-c3c(F)cccc3Cl)c2C(=O)OC)c1C(F)(F)F [Example I-14, methyl 3-(2-chloro-6-fluorophenyl)-5-(1-(2-(methoxycarbonyl)thiophen-3-yl)-5-(trifluoromethyl)-1H-pyrazol-4-yl)isoxazole-4-carboxylate]	
1000 to 10000 nM	1000 to 10000 nM	CCOC(=O)c1c(-c2ccc(OC)cc2)noc1-c1cnn(-c2cccc(F)c2)c1C(F)(F)F [Example I-100, ethyl 5-(1-(3-fluorophenyl)-5-(trifluoromethyl)-1H-pyrazol-4-yl)-3-(4-methoxyphenyl)isoxazole-4-carboxylate]	
1000 to 10000 nM	1000 to 10000 nM	CC(=O)Nc1cccc(-n2ncc(-c3onc(-c4c(F)cccc4Cl)c3C(=O)N3CCCO3)c2C(F)(F)F)c1 [IB-88, N-(3-(4-(3-(2-chloro-6-fluorophenyl)-4-(isoxazolidine-2-carbonyl)isoxazol-5-yl)-5-(trifluoromethyl)-1H-pyrazol-1-yl)phenyl)acetamide]	
1000 to 10000 nM	1000 to 10000 nM	CNC(=O)c1c(-c2ccccc2)noc1-c1cnn(-c2cc(F)cc(F)c2)c1C(F)(F)F [Example I-113, 5-(1-(3,5-difluorophenyl)-5-(trifluoromethyl)-1H-pyrazol-4-yl)-N-methyl-3-phenylisoxazole-4-carboxamide]	
1000 to 10000 nM	1000 to 10000 nM	Fc1cc(F)c(F)c(-n2ncc(-c3onc(-c4c(F)cccc4Cl)c3Br)c2C(F)(F)F)c1F [Example I-144, 4-bromo-3-(2-chloro-6-fluorophenyl)-5-(1-(2,3,5,6-tetrafluorophenyl)-5-(trifluoromethyl)-1H-pyrazol-4-yl)isoxazole]	
1000 to 10000 nM		CCOC(=O)c1c(-c2ccc(Cl)cc2)noc1-c1cnn(-c2ccc(F)cc2)c1C(F)(F)F [Example I-78, ethyl 3-(4-chlorophenyl)-5-(1-(4-fluorophenyl)-5-(trifluoromethyl)-1H-pyrazol-4-yl)isoxazole-4-carboxylate]	
1000 to 10000 nM	1000 to 10000 nM	COC(=O)c1c(-c2c(F)cccc2Cl)noc1-c1cnn(-c2ccc(S(N)(=O)=O)cc2)c1C(F)(F)F [Example I-86, methyl 3-(2-chloro-6-fluorophenyl)-5-(1-(4-sulfamoylphenyl)-5-(trifluoromethyl)-1H-pyrazol-4-yl)isoxazole-4-carboxylate]	
1000 to 10000 nM		CNC(=O)c1c(-c2c(F)cccc2Cl)noc1-c1cnn(-c2ccccc2Cl)c1C(F)(F)F [IB-50, 3-(2-chloro-6-fluorophenyl)-5-(1-(2-chlorophenyl)-5-(trifluoromethyl)-1H-pyrazol-4-yl)-N-methylisoxazole-4-carboxamide]	
1000 to 10000 nM	100 to 1000 nM	CNC(=O)c1c(-c2c(F)cccc2Cl)noc1-c1cnn(-c2cc(F)cc(F)c2)c1C(F)(F)F [Example I-58, 3-(2-chloro-6-fluorophenyl)-5-(1-(3,5-difluorophenyl)-5-(trifluoromethyl)-1H-pyrazol-4-yl)-N-methylisoxazole-4-carboxamide]	
1000 to 10000 nM		CNC(=O)c1c(-c2ccccc2F)noc1-c1cnn(-c2cccc(F)c2)c1C(F)(F)F [Example I-93, 3-(2-fluorophenyl)-5-(1-(3-fluorophenyl)-5-(trifluoromethyl)-1H-pyrazol-4-yl)-N-methylisoxazole-4-carboxamide]	
100 to 1000 nM	100 to 1000 nM	COC(=O)c1c(-c2c(F)cccc2Cl)noc1-c1cnn(-c2ccccc2OC)c1C(F)(F)F [Example I-52, methyl 3-(2-chloro-6-fluorophenyl)-5-(1-(2-methoxyphenyl)-5-(trifluoromethyl)-1H-pyrazol-4-yl)isoxazole-4-carboxylate]	
1000 to 10000 nM	1000 to 10000 nM	NS(=O)(=O)c1cccc(-n2ncc(-c3onc(-c4c(F)cccc4Cl)c3C(=O)N3CCCO3)c2C(F)(F)F)c1 [IB-65, 3-(4-(3-(2-chloro-6-fluorophenyl)-4-(isoxazolidine-2-carbonyl)isoxazol-5-yl)-5-(trifluoromethyl)-1H-pyrazol-1-yl)benzenesulfonamide]	
1000 to 10000 nM	1000 to 10000 nM	CCOC(=O)c1c(-c2c(F)cccc2Cl)noc1-c1cnn(Cc2ccncc2)c1C(F)(F)F [IB-85, ethyl 3-(2-chloro-6-fluorophenyl)-5-(1-(pyridin-4-ylmethyl)-5-(trifluoromethyl)-1H-pyrazol-4-yl)isoxazole-4-carboxylate]	
100 to 1000 nM	1000 to 10000 nM	CNC(=O)c1c(-c2c(F)cccc2Cl)noc1-c1cnn(CC(C)C)c1C(F)(F)F [Example I-37, 3-(2-chloro-6-fluorophenyl)-5-(1-isobutyl-5-(trifluoromethyl)-1H-pyrazol-4-yl)-N-methylisoxazole-4-carboxamide]	
1000 to 10000 nM		Fc1cccc(Cl)c1-c1noc(-c2cnn(-c3ccc(OC(F)(F)F)cc3)c2C(F)(F)F)c1Br [IB-25, 4-bromo-3-(2-chloro-6-fluorophenyl)-5-(1-(4-(trifluoromethoxy)phenyl)-5-(trifluoromethyl)-1H-pyrazol-4-yl)isoxazole]	
1000 to 10000 nM		Fc1cccc(-n2ncc(-c3onc(-c4c(F)cccc4Cl)c3C(=S)N3CCOCC3)c2C(F)(F)F)c1 [Example I-129, (3-(2-chloro-6-fluorophenyl)-5-(1-(3-fluorophenyl)-5-(trifluoromethyl)-1H-pyrazol-4-yl)isoxazol-4-yl)(morpholino)meth-anethione]	
1000 to 10000 nM		CNC(=O)c1c(-c2c(F)cccc2Cl)noc1-c1cnn(-c2cccc(NC(C)=O)c2)c1C(F)(F)F [IB-91, 5-(1-(3-acetamidophenyl)-5-(trifluoromethyl)-1H-pyrazol-4-yl)-3-(2-chloro-6-fluorophenyl)-N-methylisoxazole-4-carboxamide]	
1000 to 10000 nM	1000 to 10000 nM	CCOC(=O)c1c(-c2c(F)cccc2Cl)noc1-c1cnn(Cc2ccccn2)c1C(F)(F)F [IB-104, ethyl 3-(2-chloro-6-fluorophenyl)-5-(1-(pyridin-2-ylmethyl)-5-(trifluoromethyl)-1H-pyrazol-4-yl)isoxazole-4-carboxylate]	
1000 to 10000 nM	1000 to 10000 nM	CNC(=O)c1c(-c2cccc(F)c2)noc1-c1cnn(-c2cccc(F)c2)c1C(F)(F)F [Example I-105, 3-(3-fluorophenyl)-5-(1-(3-fluorophenyl)-5-(trifluoromethyl)-1H-pyrazol-4-yl)-N-methylisoxazole-4-carboxamide]	
	100 to 1000 nM	CNC(=S)c1c(-c2c(F)cccc2Cl)noc1-c1cnn(-c2cccc(Cl)c2)c1C(F)(F)F [Example I-72, 3-(2-chloro-6-fluorophenyl)-5-(1-(3-chlorophenyl)-5-(trifluoromethyl)-1H-pyrazol-4-yl)-N-methylisoxazole-4-carbothioamide]	IC50 [1]: 100 to 1000 nM
1000 to 10000 nM		CNC(=O)c1c(-c2ccc(Cl)c(Cl)c2)noc1-c1cnn(-c2cccc(F)c2)c1C(F)(F)F [Example I-98, 3-(3,4-dichlorophenyl)-5-(1-(3-fluorophenyl)-5-(trifluoromethyl)-1H-pyrazol-4-yl)-N-methylisoxazole-4-carboxamide]	
	100 to 1000 nM	CN1CCN(C(=O)c2c(-c3c(F)cccc3Cl)noc2-c2cnn(-c3cccc(Cl)c3)c2C(F)(F)F)CC1 [IB-34, (3-(2-chloro-6-fluorophenyl)-5-(1-(3-chlorophenyl)-5-(trifluoromethyl)-1H-pyrazol-4-yl)-isoxazol-4-yl)(4-methylpiperazin-1-yl)methanone]	IC50 [1]: 100 to 1000 nM
